Reference: patent publication US20050154536A1, “Two-part drug discovery system” (The University of Pittsburgh - of the Commonwealth System …, priority 2001, published 2005)

Experiments:
[1] = system: C57B1/6 mice; assay: Endotoxemia protocol in C57B1/6 mice (LPS alone); assay type: in vivo
Experimental: Mice: All animal experiments were approved by the Institutional Animal Care and Use Committee of the University of Pittsburgh. All studies were carried out in C57B1/6 mice (6-10 wk old mice; Charles River Laboratories, Charles River, Me.).
Endotoxemia, in which LPS is directly introduced into an animal, is a highly reproducible means for inducing acute systemic inflammation. […] Circulating levels of TNF and IL-10 increase rapidly and decay quickly, whereas IL-6 levels peak at approximately 2-3 h and decay more slowly. The levels of NO, measured as the stable reaction product NO2^−NO3^−, remain elevated for 24 h. Levels of TNF and NO2^−/NO3^− seem to be saturated at 3 mg/kg whereas IL-6 and IL-10 saturate at 6mg/kg (FIG. 8): at 12 mg/kg (FIG. 9), the levels of most analytes are not much higher as compared to those of animals treated with 6 mg/kg LPS.

[2] = system: RAW 264.7 cells; assay: Steady-state expression of TNF and iNOS transcripts in RAW 264.7 cells; assay type: cell-based, murine; conditions: RAW 264.7 cells incubated with LPS
[3] = system: LPS-stimulated RAW 264.7 murine macrophage-like cells; conditions: LPS-stimulated RAW 264.7 cells; concentration-dependent

With lipopolysaccharide [LPS] the “survival until final time point” value ([1]; LPS 3, 6 or 12 mg/kg intraperitoneally, 24 h following injection) was “All of the mice survived”, the “time of IL-6 peak level in circulation” value ([1]; LPS 3 or 6 mg/kg intraperitoneally) was 2 to 3 h and the “steady-state expression of TNF transcripts” value [2] was “markedly increased”. For the same compound, the “steady-state expression of iNOS transcripts” value [2] was “markedly increased”.

With `NC(=O)C1=CN([C@@H]2O[C@H](COP(=O)(O)OP(=O)(O)OC[C@H]3O[C@@H](n4cnc5c(N)ncnc54)[C@H](O)[C@@H]3O)[C@@H](O)[C@H]2O)C=CC1` [NAD+, Reduced nicotinamide adenine dinucleotide] the “steady-state expression of TNF transcripts” value [2] was “decreased”, the “steady-state expression of iNOS transcripts” value [2] was “decreased” and the “concentration of NO2−/NO3− in supernatants” value [3] was “decreased”. The “concentration of TNF-α in supernatants” value [3] was “decreased”.
